# Laboratory results reported in ChEMBL document CHEMBL1201861, “Genomics of Drug Sensitity in Cancer screening data, Wellcome Trust Sanger Institute”.
# Key:
# Test in all cases: cells
# T-24 = type: functional, cell-based, Homo sapiens; details: Homo sapiens, T-24;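 note: growth inhibition of T-24 cells, read out with a cell viability assay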
# Description: SANGER: Inhibition of human T-24 cell growth in a cell viability assay.
# SCC-9 = type: functional, cell-based, Homo sapiens; details: Homo sapiens, SCC-9;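 note: Read-out is a cell viability assay, with values giving inhibition of cell growth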
# HT1197 = type: functional, cell-based, Homo sapiens, HT-1197; details: Homo sapiens, HT1197
# Description: SANGER: Inhibition of human HT-1197 cell growth in a cell viability assay.
# SW756 = type: functional, cell-based, Homo sapiens; details: Homo sapiens, SW756;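 note: growth inhibition of human SW756 cells, read out with a cell viability assay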
# Description: SANGER: Inhibition of human SW756 cell growth in a cell viability assay.
# SK-MES-1 = type: functional, cell-based, Homo sapiens; details: Homo sapiens, SK-MES-1;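 note: growth inhibition of human SK-MES-1 cells, read out with a cell viability assay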
# Description: SANGER: Inhibition of human SK-MES-1 cell growth in a cell viability assay.
# NCI-H1755 = type: functional, cell-based, Homo sapiens; details: Homo sapiens, NCI-H1755;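 note: cell viability readout used to measure growth inhibition of NCI-H1755 cells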
# Description: SANGER: Inhibition of human NCI-H1755 cell growth in a cell viability assay.
# A2780 = type: functional, cell-based, Homo sapiens; details: Homo sapiens, A2780;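 note: growth inhibition of A2780 cells, read out with a cell viability assay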
# Description: SANGER: Inhibition of human A2780 cell growth in a cell viability assay.
# LS-1034 = type: functional, cell-based, Homo sapiens; details: Homo sapiens, LS-1034
# Description: SANGER: Inhibition of human LS-1034 cell growth in a cell viability assay.
# BT-474 = type: functional, cell-based, Homo sapiens; details: Homo sapiens, BT-474
# Description: SANGER: Inhibition of human BT-474 cell growth in a cell viability assay.
# CaR-1 = type: functional, cell-based, Homo sapiens; details: Homo sapiens, CaR-1;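 note: growth inhibition of human CaR-1 cancer cells, read out with a cell viability assay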
# Description: SANGER: Inhibition of human CaR-1 cell growth in a cell viability assay.
# HCC1569 = type: functional, cell-based, Homo sapiens; details: Homo sapiens, HCC1569;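 note: growth inhibition of human HCC1569 cells, read out with a cell viability assay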
# Description: SANGER: Inhibition of human HCC1569 cell growth in a cell viability assay.
# KP-4 = type: functional, cell-based, Homo sapiens; details: Homo sapiens, KP-4; read-out: IC50;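 note: human KP-4 cells, with growth inhibition read out through a cell viability assay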
# Description: SANGER: Inhibition of human KP-4 cell growth in a cell viability assay.
# U-251 = type: functional, cell-based, Homo sapiens; details: Homo sapiens, U-251;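 note: growth inhibition of human U-251 cells, read out through a cell viability assay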
# Description: SANGER: Inhibition of human U251 cell growth in a cell viability assay.
# A101D = type: functional, cell-based, Homo sapiens; details: Homo sapiens, A101D;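 note: growth inhibition of the cell line, measured with a viability assay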
# Description: SANGER: Inhibition of human A101D cell growth in a cell viability assay.
# KYSE-450 = type: functional, cell-based; details: Homo sapiens;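 note: cell growth inhibition measured by a viability assay in human KYSE-450 cells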
# Description: SANGER: Inhibition of human KYSE-450 cell growth in a cell viability assay.
# NCI-H1838 = type: functional, cell-based, Homo sapiens; details: Homo sapiens, NCI-H1838;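 note: growth inhibition of NCI-H1838 cells, determined with a cell viability readout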
# Description: SANGER: Inhibition of human NCI-H1838 cell growth in a cell viability assay.
# KP-N-YN = type: functional, cell-based; details: Homo sapiens;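 note: growth inhibition of KP-N-YN cells, read out with a cell viability assay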
# Description: SANGER: Inhibition of human KP-N-YN cell growth in a cell viability assay.
# KNS-42 = type: functional, cell-based, Homo sapiens; details: Homo sapiens, KNS-42;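 note: growth inhibition of KNS-42 cells, read out with a cell viability assay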
# Description: SANGER: Inhibition of human KNS-42 cell growth in a cell viability assay.
# HMV-2 cell line = type: functional, cell-based, Homo sapiens; details: Homo sapiens, HMV-2;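 note: growth inhibition of HMV-II cells, read out with a cell viability assay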
# Description: SANGER: Inhibition of human HMV-II cell growth in a cell viability assay.
# MeWo = type: functional, cell-based, Homo sapiens; details: Homo sapiens, MeWo;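 note: growth inhibition of MeWo cells, determined by a cell viability readout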
# Description: SANGER: Inhibition of human Mewo cell growth in a cell viability assay.
# U-266 = type: functional, cell-based; details: Homo sapiens
# Description: SANGER: Inhibition of human U-266 cell growth in a cell viability assay.
# SKG-IIIa = type: functional, cell-based, Homo sapiens; details: Homo sapiens, SKG-IIIa;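 note: cell growth inhibition, read out with a cell viability assay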
# Description: SANGER: Inhibition of human SKG-IIIa cell growth in a cell viability assay.
# NCI-H520 = type: functional, cell-based, Homo sapiens; details: Homo sapiens, NCI-H520;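 note: growth inhibition of NCI-H520 cells, measured by a cell viability assay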
# Description: SANGER: Inhibition of human NCI-H520 cell growth in a cell viability assay.
# Ramos-2G6-4C10 = type: functional, cell-based; details: Homo sapiens;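 note: growth inhibition of the cell line, measured by a cell viability read-out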
# Description: SANGER: Inhibition of human Ramos-2G6-4C10 cell growth in a cell viability assay.
# C-33-A = type: functional, cell-based, Homo sapiens; details: Homo sapiens, C-33-A;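 note: cell viability assay measuring growth inhibition of C-33-A cells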
# Description: SANGER: Inhibition of human C-33-A cell growth in a cell viability assay.
# PC-14 = type: functional, cell-based, Homo sapiens; details: Homo sapiens, PC-14;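 note: cell viability assay measuring inhibition of PC-14 cell growth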
# Description: SANGER: Inhibition of human PC-14 cell growth in a cell viability assay.
# H4 = type: functional, cell-based; details: Homo sapiens
# Description: SANGER: Inhibition of human H4 cell growth in a cell viability assay.
# GP5d = type: functional, cell-based, Homo sapiens; details: Homo sapiens, GP5d;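 note: growth inhibition of human GP5d cells, read out with a cell viability assay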
# Description: SANGER: Inhibition of human GP5d cell growth in a cell viability assay.
# ES3 = type: functional, cell-based, Homo sapiens; details: Homo sapiens, ES3;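 note: growth inhibition of ES3 cells, read out with a cell viability assay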
# MHH-ES-1 = type: functional, cell-based, Homo sapiens; details: Homo sapiens, MHH-ES-1;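 note: cell growth inhibition measured by a cell viability assay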
# Description: SANGER: Inhibition of human MHH-ES-1 cell growth in a cell viability assay.
# LK-2 = type: functional, cell-based, Homo sapiens; details: Homo sapiens, LK-2;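 note: growth inhibition of LK-2 cells, read out with a viability assay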
# Description: SANGER: Inhibition of human LK-2 cell growth in a cell viability assay.
# HCC1419 = type: functional, cell-based, Homo sapiens; details: Homo sapiens, HCC1419;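 note: growth inhibition of human HCC1419 cells, read out as cell viability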
# Description: SANGER: Inhibition of human HCC1419 cell growth in a cell viability assay.
# SK-UT-1 = type: functional, cell-based, Homo sapiens; details: Homo sapiens, SK-UT-1;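 note: growth inhibition of SK-UT-1 cells, measured by a cell viability assay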
# Description: SANGER: Inhibition of human SK-UT-1 cell growth in a cell viability assay.
# OVCAR-4 = type: functional, cell-based, Homo sapiens; details: Homo sapiens, OVCAR-4;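 note: growth inhibition of human OVCAR-4 cells, measured with a cell viability assay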
# Description: SANGER: Inhibition of human OVCAR-4 cell growth in a cell viability assay.
# HOP-62 = type: functional, cell-based, Homo sapiens; details: Homo sapiens, HOP-62;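 note: cell growth inhibition determined with a viability assay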
# Description: SANGER: Inhibition of human HOP-62 cell growth in a cell viability assay.
# SCC-4 = type: functional, cell-based, Homo sapiens; details: Homo sapiens, SCC-4;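 note: growth inhibition of human SCC-4 cells, read out as cell viability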
# Description: SANGER: Inhibition of human SCC-4 cell growth in a cell viability assay.
# CWR22R = type: functional, cell-based, Homo sapiens; details: Homo sapiens, 22Rv1;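 note: growth inhibition of 22Rv1 cells, read out with a cell viability assay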
# Description: SANGER: Inhibition of human 22RV1 cell growth in a cell viability assay.
# SK-NEP-1 = type: functional, cell-based; details: Homo sapiens;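 note: growth inhibition of human SK-NEP-1 cells, read out by a cell viability assay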
# Description: SANGER: Inhibition of human SK-NEP-1 cell growth in a cell viability assay.
# SW1710 = type: functional, cell-based, Homo sapiens; details: Homo sapiens, SW1710;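 note: growth inhibition of SW1710 cells, determined with a cell viability assay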
# Description: SANGER: Inhibition of human SW1710 cell growth in a cell viability assay.
# Calu-3 = type: functional, cell-based, Homo sapiens; details: Homo sapiens, Calu-3;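 note: growth inhibition of human Calu-3 cells, determined with a cell viability assay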
# Description: SANGER: Inhibition of human Calu-3 cell growth in a cell viability assay.
# NB10 = type: functional, cell-based, Homo sapiens; details: Homo sapiens, NB10;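 note: growth inhibition of NB10 cells, read out by a cell viability assay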
# Description: SANGER: Inhibition of human NB10 cell growth in a cell viability assay.
# HCC1806 = type: functional, cell-based, Homo sapiens; details: Homo sapiens, HCC1806;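 note: growth inhibition of the cancer cell line, determined with a cell viability assay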
# Description: SANGER: Inhibition of human HCC1806 cell growth in a cell viability assay.
# ChaGo-K-1 = type: functional, cell-based; details: Homo sapiens;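 note: growth inhibition of ChaGo-K-1 cells, read out with a cell viability assay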
# Description: SANGER: Inhibition of human ChaGo-K-1 cell growth in a cell viability assay.
# BE-13 = type: functional, cell-based; details: Homo sapiens;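 note: growth inhibition of human BE-13 cells, measured with a cell viability assay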
# Description: SANGER: Inhibition of human BE-13 cell growth in a cell viability assay.
# HL-60 = type: functional, cell-based; details: Homo sapiens;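 note: growth inhibition of human HL-60 cells, read out with a cell viability assay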
# Description: SANGER: Inhibition of human HL-60 cell growth in a cell viability assay.
# A-427 = type: functional, cell-based, Homo sapiens; details: Homo sapiens, A-427;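 note: growth inhibition of human A-427 cells, read out by a cell viability assay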
# Description: SANGER: Inhibition of human A427 cell growth in a cell viability assay.
# DOHH-2 = type: functional, cell-based; details: Homo sapiens;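 note: growth inhibition of human DOHH-2 cells, read out with a cell viability assay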
# Description: SANGER: Inhibition of human DOHH-2 cell growth in a cell viability assay.
# BXPC-3 = type: functional, cell-based, Homo sapiens; details: Homo sapiens, BXPC-3;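 note: growth inhibition of human BxPC-3 cells, read out by a cell viability assay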
# Description: SANGER: Inhibition of human BxPC-3 cell growth in a cell viability assay.
# UMC-11 = type: functional, cell-based, Homo sapiens; details: Homo sapiens, UMC-11;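 note: growth inhibition of UMC-11 cells, read out with a cell viability assay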
# Description: SANGER: Inhibition of human UMC-11 cell growth in a cell viability assay.
# OMC-1 = type: functional, cell-based, Homo sapiens; details: Homo sapiens, OMC-1;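 note: growth inhibition of the OMC-1 cell line, measured by a cell viability assay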
# Description: SANGER: Inhibition of human OMC-1 cell growth in a cell viability assay.
# LCLC-103H cell line = type: functional, cell-based, Homo sapiens; details: Homo sapiens, LCLC-103H
# Description: SANGER: Inhibition of human LCLC-103H cell growth in a cell viability assay.
smiles,measurement,setting,value
Cc1ccc(Nc2nccc(N(C)c3ccc4c(C)n(C)nc4c3)n2)cc1S(N)(=O)=O [PAZOPANIB],IC50,T-24,> 8 µM
same,IC50,SCC-9,> 8 µM
same,IC50,HT1197,> 8 µM
same,IC50,SW756,> 8 µM
same,IC50,SK-MES-1,6.87 µM
same,IC50,NCI-H1755,> 8 µM
same,IC50,A2780,> 8 µM
same,IC50,LS-1034,> 8 µM
same,IC50,BT-474,> 8 µM
same,IC50,CaR-1,> 8 µM
same,IC50,HCC1569,> 8 µM
same,IC50,KP-4,> 8 µM
same,IC50,U-251,> 8 µM
same,IC50,A101D,> 8 µM
same,IC50,KYSE-450,> 8 µM
same,IC50,NCI-H1838,> 8 µM
same,IC50,KP-N-YN,> 8 µM
same,IC50,KNS-42,> 8 µM
same,IC50,HMV-2 cell line,> 8 µM
same,IC50,MeWo,> 8 µM
same,IC50,U-266,> 8 µM
same,IC50,SKG-IIIa,> 8 µM
same,IC50,NCI-H520,5.73 µM
same,IC50,Ramos-2G6-4C10,> 8 µM
same,IC50,C-33-A,> 8 µM
same,IC50,PC-14,> 8 µM
same,IC50,H4,2.51 µM
same,IC50,GP5d,> 8 µM
same,IC50,ES3,> 8 µM
same,IC50,MHH-ES-1,> 8 µM
same,IC50,LK-2,2.65 µM
same,IC50,HCC1419,> 8 µM
same,IC50,SK-UT-1,> 8 µM
same,IC50,OVCAR-4,> 8 µM
same,IC50,HOP-62,> 8 µM
same,IC50,SCC-4,> 8 µM
same,IC50,CWR22R,> 8 µM
same,IC50,SK-NEP-1,> 8 µM
same,IC50,SW1710,4.47 µM
same,IC50,Calu-3,> 8 µM
same,IC50,NB10,> 8 µM
same,IC50,HCC1806,> 8 µM
same,IC50,ChaGo-K-1,> 8 µM
same,IC50,BE-13,> 8 µM
same,IC50,HL-60,> 8 µM
same,IC50,A-427,1.98 µM
same,IC50,DOHH-2,> 8 µM
same,IC50,BXPC-3,> 8 µM
same,IC50,UMC-11,> 8 µM
same,IC50,OMC-1,> 8 µM
same,IC50,LCLC-103H cell line,1.45 µM
C=CCNC1=C2C[C@@H](C)C[C@H](OC)[C@H](O)[C@@H](C)/C=C(\C)[C@H](OC(N)=O)[C@@H](OC)/C=C\C=C(/C)C(=O)NC(=CC1=O)C2=O [TANESPIMYCIN],IC50,T-24,0.332 µM
same,IC50,SCC-9,0.167 µM
same,IC50,HT1197,> 1 µM
same,IC50,SW756,0.442 µM
same,IC50,SK-MES-1,0.0361 µM
same,IC50,NCI-H1755,0.0634 µM
same,IC50,A2780,0.0253 µM
same,IC50,LS-1034,> 1 µM
same,IC50,BT-474,0.045 µM
same,IC50,CaR-1,0.0455 µM
same,IC50,HCC1569,> 1 µM
same,IC50,KP-4,0.0475 µM
same,IC50,U-251,0.105 µM
same,IC50,A101D,0.481 µM
same,IC50,KYSE-450,0.986 µM
same,IC50,NCI-H1838,> 1 µM
same,IC50,KP-N-YN,> 1 µM
same,IC50,KNS-42,> 1 µM
same,IC50,HMV-2 cell line,0.12 µM
same,IC50,MeWo,0.149 µM
same,IC50,U-266,> 1 µM
same,IC50,SKG-IIIa,0.0499 µM
same,IC50,NCI-H520,0.387 µM
same,IC50,Ramos-2G6-4C10,> 1 µM
same,IC50,C-33-A,> 1 µM
same,IC50,PC-14,0.132 µM
same,IC50,H4,0.0309 µM
same,IC50,GP5d,0.141 µM
same,IC50,ES3,0.591 µM
same,IC50,MHH-ES-1,0.237 µM
same,IC50,LK-2,0.183 µM
same,IC50,HCC1419,0.146 µM
same,IC50,SK-UT-1,0.0318 µM
same,IC50,OVCAR-4,> 1 µM
same,IC50,HOP-62,0.499 µM
same,IC50,SCC-4,0.178 µM
same,IC50,CWR22R,> 1 µM
same,IC50,SK-NEP-1,> 1 µM
same,IC50,SW1710,0.295 µM
same,IC50,Calu-3,> 1 µM
same,IC50,NB10,> 1 µM
same,IC50,HCC1806,0.0713 µM
same,IC50,ChaGo-K-1,0.317 µM
same,IC50,BE-13,> 1 µM
same,IC50,HL-60,> 1 µM
same,IC50,A-427,0.42 µM
same,IC50,DOHH-2,> 1 µM
same,IC50,BXPC-3,0.16 µM
same,IC50,UMC-11,0.552 µM
same,IC50,OMC-1,0.118 µM
same,IC50,LCLC-103H cell line,> 1 µM
Cn1cncc1[C@@](N)(c1ccc(Cl)cc1)c1ccc2c(c1)c(-c1cccc(Cl)c1)cc(=O)n2C [TIPIFARNIB],IC50,T-24,13.9 µM
same,IC50,SCC-9,> 16 µM
same,IC50,HT1197,11.7 µM
same,IC50,SW756,13.6 µM
same,IC50,SK-MES-1,1.91 µM
same,IC50,NCI-H1755,> 16 µM
same,IC50,A2780,3.3 µM
same,IC50,LS-1034,2.46 µM
same,IC50,BT-474,> 16 µM
same,IC50,CaR-1,> 16 µM
same,IC50,HCC1569,2.58 µM
same,IC50,KP-4,13.6 µM
same,IC50,U-251,7.09 µM
same,IC50,A101D,1.87 µM
same,IC50,KYSE-450,0.729 µM
same,IC50,NCI-H1838,> 16 µM
same,IC50,KP-N-YN,> 16 µM
same,IC50,KNS-42,5.76 µM
same,IC50,HMV-2 cell line,0.216 µM
same,IC50,MeWo,2.04 µM
same,IC50,U-266,> 16 µM
same,IC50,SKG-IIIa,> 16 µM
same,IC50,NCI-H520,2.22 µM
same,IC50,Ramos-2G6-4C10,> 16 µM
same,IC50,C-33-A,4.49 µM
same,IC50,PC-14,> 16 µM
same,IC50,H4,1.22 µM
same,IC50,GP5d,1.42 µM
same,IC50,ES3,11.8 µM
same,IC50,MHH-ES-1,5.27 µM
same,IC50,LK-2,1.06 µM
same,IC50,HCC1419,4.65 µM
same,IC50,SK-UT-1,4.86 µM
same,IC50,OVCAR-4,2.21 µM
same,IC50,HOP-62,3.21 µM
same,IC50,SCC-4,1.33 µM
same,IC50,CWR22R,3.22 µM
same,IC50,SK-NEP-1,9.94 µM
same,IC50,SW1710,0.726 µM
same,IC50,Calu-3,4.43 µM
same,IC50,NB10,11.7 µM
same,IC50,HCC1806,11.9 µM
same,IC50,ChaGo-K-1,1.75 µM
same,IC50,BE-13,4.94 µM
same,IC50,HL-60,6.93 µM
same,IC50,A-427,0.579 µM
same,IC50,DOHH-2,7.91 µM
same,IC50,BXPC-3,4.33 µM
same,IC50,UMC-11,> 16 µM
same,IC50,OMC-1,6.49 µM
same,IC50,LCLC-103H cell line,0.129 µM
